Three compounds from patent US20100267796A1, “THERAPEUTIC AGENT FOR IRRITABLE BOWEL SYNDROME” (KYOWA HAKKO KOGYO CO., LTD., priority 2006, published 2010) can be followed below.

For assay [1], the system named is adenosine uptake in HEK293 cells. The assay is described as follows: Adenosine uptake inhibitory activity in HEK293 cells ([3H]adenosine uptake). Format: cell-based. To be noted: Homo sapiens, 1 min, [3H]adenosine uptake relative to 100% of control, HEK293 cells; for activity at 0.05 µM: 50 nmol/L compound, n=2; for activity at 0.5 µM: 500 nmol/L compound. Here is the method:
A test was conducted according to the method of Leung et al. [Biochemical Pharmacology, Vol. 70, pp. 355-362 (2005)]. HEK293 cells (ATCC, Registration No. CRL-1537) were subcultured in a Dulbecco's modified Eagle's medium (manufactured by Invitrogen Corporation) containing 10% of fatal calf serum in a CO2 incubator using a poly-L-lysine-coated 10-cm dish (manufactured by Asahi Techno Glass Corporation). The cultured cells were seeded in a poly-L-lysine-coated 24-well plate (manufactured by Asahi Techno Glass Corporation) and cultured until the cells become confluent. […] After incubation at room temperature for 15 minutes, 0.2 mL of a Na^+-free buffer containing 100 nmol/L of [^3H] adenosine (manufactured by GE Health Care Bioscience Corporation) and each compound at each of 50 nmol/L and 500 nmol/L was added to each well. After 1 minute, the reaction solution was removed with an aspirator, and the wells were washed twice with 0.5 mL of ice-cooled PBS (phosphate-buffered saline). Then, 0.5 mL of PBS containing 5% Triton X-100 was added to each well, and the cells were scraped with a scraper. The solution in each well was homogenized by passing through a 20 G injection needle ten times and transferred to a scintillation vial containing 4 mL of clear sol (manufactured by Nacalai Tesque Inc.). Further, the wells were washed with 0.5 mL of PBS containing 5% Triton X-100, and the washing solution was added to the same vial. After sufficient agitation, radioactivity was measured using a liquid scintillation counter (Aloka Co., Ltd., LSC-3500). A relative value to 100% of an uptake of a control was indicated by percentage.

Assay [2] has as its system restraint stress-induced defecation. The assay is described as follows: Action on restraint stress-induced defecation. To be noted: 10 mg/kg p.o. 1 hour before restraint stress; measured 1 hour after stress initiation; rats, n=10; control of each sub-table 1.06-1.71 g. Format: in vivo, male Wistar rats. As to the method: An experiment was carried out according to the method of Kishibayashi et al. [Japanese Journal of Pharmacology, Vol. 69, No. 4, pp. 495-502 (1993)]. In the experiment, male Wistar rats aged 6 to 7 weeks (supplied from Charles River Laboratories Japan, Inc.) were used. […] The rats were lightly anesthetized with diethyl ether, and the thoracic trunk and the forelimbs were wrapped with a tape to produce mild stress. One hour after stress initiation, the wet weight of fecal pellets was measured. Each drug solution was orally administered 1 hour before restraint stress. A test compound was suspended at a concentration of 2 mg/mL in an aqueous solution of 0.5 w/v % methyl cellulose 400 cP and orally administered at a volume of 5 mL/kg (at a dose of 10 mg/kg). In a control, an aqueous solution of 0.5 w/v % methyl cellulose 400 cP was administered. Ten rats were used in each group. […] YM060, a serotonin 5-HT3 receptor antagonist [The Journal of Pharmacology and Experimental Therapeutics, Vol. 259, No. 2, pp. 815-819 (1991), Astellas Pharma. Inc., online, internet (URL: […].com/jp/companry/news/2006/pdf/060131.pdf)], which is being applied as a therapeutic agent for irritable bowel syndrome, was administered at a dose of 0.1 mg/kg.

In assay [1], `O=C1c2sccc2CS(=O)(=O)c2cccc(Nc3ccccc3)c21` [Compound 5-1, 5,5-Dioxo-9-phenylamino-4,10-dihydrothieno[3,2-c][1]benzothiepin-10-one] came in with an activity at 0.05 µM of 91% and an activity at 0.5 µM of 60%. In addition, in assay [2], the “Wet weight of fecal pellets” value is listed as 0.36 ± 0.16 g.

In assay [1], `O=C1c2sccc2CS(=O)(=O)c2cccc(Nc3cc(Cl)ccc3O)c21` [Compound 5-2, 9-(5-Chloro-2-hydroxyphenylamino)-5,5-dioxo-4,10-dihydrothieno[3,2-c][1]benzothiepin-10-one] came in with an activity at 0.05 µM of 80% and an activity at 0.5 µM of 44%. Further, the “Wet weight of fecal pellets” value in assay [2] was found to be 0.46 ± 0.18 g.

In assay [1], `O=C1c2sccc2CS(=O)(=O)c2cccc(NCc3ccccc3)c21` [Compound 5-3, 9-Benzylamino-5,5-dioxo-4,10-dihydrothieno[3,2-c][1]benzothiepin-10-one] registered an activity at 0.05 µM of 63% and an activity at 0.5 µM of 30%. Also, the “Wet weight of fecal pellets” value in assay [2] came to 0.41 ± 0.17 g.
